This passage reports IC50 results from patent US20230233569A1 (Revolution Medicines, Inc., priority 2020, published 2023).

Assay in all cases: Ras-Raf disruption / FRET / MOA assay (BRAF RBD)
Holding throughout (format): biochemical

The target of one assay is KRAS G12D (Homo sapiens, UniProt P01116+P62937, G12D). The note with it: Ras-Raf disruption, with Cyclophilin A; read-out: KRAS G12D FRET data IC50. The gist of the method: (§1)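 Compound-induced Ras–Cyclophilin A ternary complex disrupting BRAF RBD binding, read as IC50 from reduced TR-FRET ratio relative to DMSO. Final: Ras-GMPPNP 12.5 nM, BRAF RBD 50 nM, Cyclophilin A 25 μM, top compound 30 μM (3-fold, 10 points); 3 h at 25 °C, then 1.5 h with detection antibodies.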
Sequence of KRAS G12D (P01116 1-169 isoform P01116-2 G12D limits assumed): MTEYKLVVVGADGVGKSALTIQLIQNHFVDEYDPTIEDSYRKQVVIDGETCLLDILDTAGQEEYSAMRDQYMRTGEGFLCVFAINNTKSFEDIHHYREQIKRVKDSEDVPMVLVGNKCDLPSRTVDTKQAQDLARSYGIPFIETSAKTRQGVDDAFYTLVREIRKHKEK
Sequence of KRAS G12D (P62937 whole entry): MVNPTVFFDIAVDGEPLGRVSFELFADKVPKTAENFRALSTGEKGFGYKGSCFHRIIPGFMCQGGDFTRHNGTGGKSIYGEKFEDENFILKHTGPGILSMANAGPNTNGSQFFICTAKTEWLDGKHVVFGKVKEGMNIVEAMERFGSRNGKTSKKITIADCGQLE

The target in the next assay is KRAS G13D (Homo sapiens, UniProt P01116+P62937, G13D). The conditions noted are these: Ras-Raf disruption, with Cyclophilin A; read-out: KRAS G13D FRET data IC50. The gist of the method:
as §1

The target in another assay is KRAS G13C (Homo sapiens, UniProt P01116+P62937, G13C). The note with it: Ras-Raf disruption, with Cyclophilin A; read-out: KRAS G13C FRET data IC50. The gist of the method:
as §1

Another assay concerns the target NRAS Q61K (Homo sapiens, UniProt P01111+P62937, Q61K). The conditions noted are these: NRAS Q61K; read-out: NRAS Q61K FRET data IC50. The gist of the method: as §1
Another assay concerns the target KRAS WT (Homo sapiens, UniProt P01116+P62937). The note with it: Ras-Raf disruption, with Cyclophilin A; read-out: KRAS WT FRET data IC50. The method, boiled down: as §1
The next assay has as its target KRAS G12V (Homo sapiens, UniProt P01116+P62937, G12V). The note with it: Ras-Raf disruption, with Cyclophilin A; read-out: KRAS G12V FRET data IC50. The gist of the method:
as §1

A further assay has as its target NRAS WT (Homo sapiens, UniProt P01111+P62937). The conditions noted are these: NRAS WT; read-out: NRAS WT FRET data IC50. The gist of the method:
as §1

The next assay has as its target NRAS Q61R (Homo sapiens, UniProt P01111+P62937, Q61R). The conditions noted are these: NRAS Q61R; read-out: NRAS Q61R FRET data IC50. The gist of the method: as §1
The target in another assay is KRAS Q61H (Homo sapiens, UniProt P01116+P62937, Q61H). The conditions noted are these: KRAS Q61H; read-out: KRAS Q61H FRET data IC50. The gist of the method:
as §1

The target in another assay is NRAS G12C (Homo sapiens, UniProt P01111+P62937, G12C). The note with it: NRAS G12C; read-out: NRAS G12C FRET data IC50. The method, boiled down:
as §1

The next assay addresses KRAS G12S (Homo sapiens, UniProt P01116+P62937, G12S). The conditions noted are these: Ras-Raf disruption, with Cyclophilin A; read-out: KRAS G12S FRET data IC50. The gist of the method:
as §1

The next assay addresses KRAS G12C (Homo sapiens, UniProt P01116+P62937, G12C). The conditions noted are these: Ras-Raf disruption, with Cyclophilin A; read-out: KRAS G12C FRET data IC50. The gist of the method: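 TR-FRET read-out after 1.5 h with anti-His Eu-W1024 (10 nM) and anti-GST APC (50 nM), following 3 h at 25 °C of compound (top 30 μM, 3-fold, 10 points) with 25 μM Cyclophilin A, 12.5 nM GMPPNP-loaded K-Ras G12C and 50 nM BRAF RBD; IC50 reported.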

Sequence of NRAS Q61R (P01111 whole entry Q61R): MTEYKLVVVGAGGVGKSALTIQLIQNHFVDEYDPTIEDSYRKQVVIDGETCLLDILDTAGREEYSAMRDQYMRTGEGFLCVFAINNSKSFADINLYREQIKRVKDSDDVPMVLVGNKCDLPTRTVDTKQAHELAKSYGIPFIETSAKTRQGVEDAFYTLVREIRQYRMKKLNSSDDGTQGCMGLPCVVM
Sequence of NRAS Q61R (P62937 whole entry): as the sequence (P62937 whole entry) above
Sequence of NRAS G12C (P01111 whole entry G12C): as the sequence (P01111 whole entry Q61R) above, with G12C, R61Q counted along it
Sequence of NRAS G12C (P62937 whole entry): as the sequence (P62937 whole entry) above
Sequence of KRAS G13D (P01116 1-169 isoform P01116-2 G13D limits assumed): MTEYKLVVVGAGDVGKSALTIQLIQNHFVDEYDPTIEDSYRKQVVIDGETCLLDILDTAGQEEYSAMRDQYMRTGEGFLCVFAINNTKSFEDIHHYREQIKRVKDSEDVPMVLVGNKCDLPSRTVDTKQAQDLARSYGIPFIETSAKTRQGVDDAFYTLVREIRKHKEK
Sequence of KRAS G13D (P62937 whole entry): as the sequence (P62937 whole entry) above
Sequence of KRAS G12V (P01116 1-169 isoform P01116-2 G12V limits assumed): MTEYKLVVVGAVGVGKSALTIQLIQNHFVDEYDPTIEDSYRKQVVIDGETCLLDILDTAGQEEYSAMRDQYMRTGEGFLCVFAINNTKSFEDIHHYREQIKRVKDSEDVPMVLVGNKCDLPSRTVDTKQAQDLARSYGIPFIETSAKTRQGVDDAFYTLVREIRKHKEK
Sequence of KRAS G12V (P62937 whole entry): as the sequence (P62937 whole entry) above
Sequence of KRAS WT (P01116 1-169 isoform P01116-2 limits assumed): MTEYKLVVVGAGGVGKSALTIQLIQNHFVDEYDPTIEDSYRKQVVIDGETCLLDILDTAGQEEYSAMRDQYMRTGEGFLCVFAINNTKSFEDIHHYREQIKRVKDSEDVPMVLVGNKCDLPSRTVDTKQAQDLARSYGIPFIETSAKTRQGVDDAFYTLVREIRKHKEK
Sequence of KRAS WT (P62937 whole entry): as the sequence (P62937 whole entry) above
Sequence of KRAS Q61H (P01116 1-169 isoform P01116-2 Q61H limits assumed): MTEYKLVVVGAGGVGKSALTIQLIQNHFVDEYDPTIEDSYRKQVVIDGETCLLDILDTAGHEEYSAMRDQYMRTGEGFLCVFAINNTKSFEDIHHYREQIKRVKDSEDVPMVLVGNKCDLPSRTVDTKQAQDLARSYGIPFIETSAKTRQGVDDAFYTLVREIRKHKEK
Sequence of KRAS Q61H (P62937 whole entry): as the sequence (P62937 whole entry) above
Sequence of KRAS G13C (P01116 1-169 isoform P01116-2 G13C limits assumed): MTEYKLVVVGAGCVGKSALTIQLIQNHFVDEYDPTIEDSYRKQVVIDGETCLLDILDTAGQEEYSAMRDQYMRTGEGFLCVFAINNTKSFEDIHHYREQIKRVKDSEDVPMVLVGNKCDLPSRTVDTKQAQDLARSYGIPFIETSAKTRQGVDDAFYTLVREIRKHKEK
Sequence of KRAS G13C (P62937 whole entry): as the sequence (P62937 whole entry) above
Sequence of KRAS G12C (P01116 1-169 isoform P01116-2 G12C limits assumed): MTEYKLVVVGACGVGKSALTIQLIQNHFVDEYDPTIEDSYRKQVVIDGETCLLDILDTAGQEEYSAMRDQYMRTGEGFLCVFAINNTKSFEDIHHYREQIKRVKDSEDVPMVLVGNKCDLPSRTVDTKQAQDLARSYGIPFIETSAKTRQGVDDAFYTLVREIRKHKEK
Sequence of KRAS G12C (P62937 whole entry): as the sequence (P62937 whole entry) above
Sequence of KRAS G12S (P01116 1-169 isoform P01116-2 G12S limits assumed): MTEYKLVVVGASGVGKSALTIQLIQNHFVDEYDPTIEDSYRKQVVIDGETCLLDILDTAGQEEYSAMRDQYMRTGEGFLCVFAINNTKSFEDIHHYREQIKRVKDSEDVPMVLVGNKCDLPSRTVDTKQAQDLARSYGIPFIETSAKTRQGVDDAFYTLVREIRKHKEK
Sequence of KRAS G12S (P62937 whole entry): as the sequence (P62937 whole entry) above
Sequence of NRAS Q61K (P01111 whole entry Q61K): as the sequence (P01111 whole entry Q61R) above, with R61K counted along it
Sequence of NRAS Q61K (P62937 whole entry): as the sequence (P62937 whole entry) above
Sequence of NRAS WT (P01111 whole entry): as the sequence (P01111 whole entry Q61R) above, with R61Q counted along it
Sequence of NRAS WT (P62937 whole entry): as the sequence (P62937 whole entry) above

For `CCn1c(-c2cccnc2[C@H](C)OC)c2c3cc(ccc31)-c1csc(n1)C[C@H](NC(=O)[C@H](C(C)C)N(C)C(=O)N1CC(N(C)C(=O)[C@@H]3CN3)C1)C(=O)N1CCC[C@H](N1)C(=O)OCC(C)(C)C2` (atropisomer, axis not shown) [Example 219], the IC50 (as a rule, the concentration at which inhibition is half-maximal) is 1 to 10 µM at KRAS G12D; 0.1 to 1 µM at KRAS G13D; 0.1 to 1 µM on KRAS G13C; 0.01 to 0.1 µM at NRAS Q61K; 0.1 to 1 µM on KRAS WT; 0.1 to 1 µM on KRAS G12V. In addition, the IC50 at NRAS WT, on NRAS Q61R, at KRAS Q61H, at NRAS G12C, on KRAS G12S and at KRAS G12C was 0.1 to 1 µM throughout.

`CCn1c(-c2cccnc2[C@H](C)OC)c2c3cc(ccc31)-c1csc(n1)C[C@H](NC(=O)[C@H](C(C)C)N(C)C(=O)N1CCCN(C(=O)[C@H]3CN3)CC1)C(=O)N1CCC[C@H](N1)C(=O)OCC(C)(C)C2` (atropisomer, axis not shown) [Example 222]: the IC50 on KRAS G12D is 0.1 to 1 µM; on KRAS G13D it was 0.1 to 1 µM; at KRAS G13C it was 0.1 to 1 µM; at NRAS Q61K, 0.01 to 0.1 µM; at KRAS WT it was 0.01 to 0.1 µM; at KRAS G12V, 0.1 to 1 µM. Moreover, the IC50 at NRAS WT, at NRAS Q61R, at KRAS Q61H, at NRAS G12C, on KRAS G12S and at KRAS G12C was 0.01 to 0.1 µM each time.

Regarding `CCn1c(-c2cccnc2[C@H](C)OC)c2c3cc(ccc31)-c1csc(n1)C[C@H](NC(=O)[C@H](C(C)C)N(C)C(=O)N1CCCN(C(=O)[C@@H]3CN3)CC1)C(=O)N1CCC[C@H](N1)C(=O)OCC(C)(C)C2` (atropisomer, axis not shown) [Example 223], the half-maximal inhibitory concentration (IC50) at KRAS G12D was 0.1 to 1 µM; at KRAS G13D, 0.1 to 1 µM; at KRAS G13C it was 0.1 to 1 µM; at NRAS Q61K, 0.01 to 0.1 µM; on KRAS WT, 0.01 to 0.1 µM; at KRAS G12V it was 0.1 to 1 µM. The IC50 on NRAS WT was in the range of 0.01 to 0.1 µM; on NRAS Q61R it was 0.01 to 0.1 µM; at KRAS Q61H it was 0.01 to 0.1 µM; on NRAS G12C, 0.01 to 0.1 µM; on KRAS G12S, 0.1 to 1 µM; at KRAS G12C, 0.01 to 0.1 µM.

Consider `CCn1c(-c2cccnc2[C@H](C)OC)c2c3cc(ccc31)-c1csc(n1)C[C@H](NC(=O)[C@H](C(C)C)N(C)C(=O)N1CC(CN(C)C(=O)[C@H]3CN3)C1)C(=O)N1CCC[C@H](N1)C(=O)OCC(C)(C)C2` (atropisomer, axis not shown) [Example 224], for which the half-inhibitory concentration (IC50) lay in the range of 0.1 to 1 µM on KRAS G12D; 0.1 to 1 µM on KRAS G13D; 0.1 to 1 µM on KRAS G13C; 0.01 to 0.1 µM on NRAS Q61K; 0.1 to 1 µM on KRAS WT; 0.1 to 1 µM at KRAS G12V. Further, the IC50 on NRAS WT fell in the range of 0.01 to 0.1 µM; on NRAS Q61R, 0.01 to 0.1 µM; on KRAS Q61H, 0.01 to 0.1 µM; on NRAS G12C, 0.01 to 0.1 µM; at KRAS G12S, 0.1 to 1 µM; on KRAS G12C, 0.01 to 0.1 µM.

Take `CCn1c(-c2cccnc2[C@H](C)OC)c2c3cc(ccc31)-c1csc(n1)C[C@H](NC(=O)[C@H](C(C)C)N(C)C(=O)N1CC(CN(C)C(=O)[C@@H]3CN3)C1)C(=O)N1CCC[C@H](N1)C(=O)OCC(C)(C)C2` (atropisomer, axis not shown) [Example 225]: the IC50 at KRAS G12D lay in the range of 0.1 to 1 µM; at KRAS G13D, 0.1 to 1 µM; at KRAS G13C it was 0.1 to 1 µM; at NRAS Q61K it was 0.01 to 0.1 µM; at KRAS WT, 0.1 to 1 µM; on KRAS G12V, 0.1 to 1 µM. Moreover, the IC50 lay within 0.01 to 0.1 µM on NRAS WT; 0.1 to 1 µM on NRAS Q61R; 0.01 to 0.1 µM on KRAS Q61H; 0.01 to 0.1 µM at NRAS G12C; 0.1 to 1 µM on KRAS G12S; 0.01 to 0.1 µM at KRAS G12C.

As to `CCn1c(-c2cccnc2[C@H](C)OC)c2c3cc(ccc31)-c1csc(n1)C[C@H](NC(=O)[C@H](C(C)C)N(C)C(=O)N1CC[C@@H](N(C)C(=O)[C@H]3CN3)C1)C(=O)N1CCC[C@H](N1)C(=O)OCC(C)(C)C2` (atropisomer, axis not shown) [Example 226], the half-inhibitory concentration (IC50) on KRAS G12D was 1 to 10 µM; on KRAS G13D, 0.1 to 1 µM; on KRAS G13C, 0.1 to 1 µM; at NRAS Q61K it was 0.1 to 1 µM; at KRAS WT, 0.1 to 1 µM; on KRAS G12V, 0.1 to 1 µM. Further, the half-maximal inhibitory concentration (IC50) at NRAS WT, on NRAS Q61R, on KRAS Q61H, at NRAS G12C, on KRAS G12S and at KRAS G12C was 0.1 to 1 µM throughout.

As to `CCn1c(-c2cccnc2[C@H](C)OC)c2c3cc(ccc31)-c1csc(n1)C[C@H](NC(=O)[C@H](C(C)C)N(C)C(=O)N1CC[C@@H](N(C)C(=O)[C@@H]3CN3)C1)C(=O)N1CCC[C@H](N1)C(=O)OCC(C)(C)C2` (atropisomer, axis not shown) [Example 227], the IC50 lay within 0.1 to 1 µM at KRAS G12D; 0.1 to 1 µM at KRAS G13D; 0.1 to 1 µM at KRAS G13C; 0.01 to 0.1 µM at NRAS Q61K; 0.1 to 1 µM at KRAS WT; 0.1 to 1 µM at KRAS G12V. The IC50 was in the range of 0.1 to 1 µM on NRAS WT; 0.1 to 1 µM at NRAS Q61R; 0.01 to 0.1 µM at KRAS Q61H; 0.01 to 0.1 µM on NRAS G12C; 0.1 to 1 µM at KRAS G12S; 0.1 to 1 µM at KRAS G12C.

For the compound `CCn1c(-c2cccnc2[C@H](C)OC)c2c3cc(ccc31)-c1csc(n1)C[C@H](NC(=O)[C@H](C(C)C)N(C)C(=O)N1CC[C@H](N(C)C(=O)[C@H]3CN3)C1)C(=O)N1CCC[C@H](N1)C(=O)OCC(C)(C)C2` (atropisomer, axis not shown) [Example 228], the IC50 at KRAS G12D lay within 1 to 10 µM; at KRAS G13D it was 0.1 to 1 µM; on KRAS G13C it was 0.1 to 1 µM; on NRAS Q61K, 0.01 to 0.1 µM; at KRAS WT, 0.1 to 1 µM; on KRAS G12V it was 0.1 to 1 µM. The IC50 at NRAS WT was in the range of 0.1 to 1 µM; at NRAS Q61R, 0.1 to 1 µM; at KRAS Q61H it was 0.01 to 0.1 µM; at NRAS G12C it was 0.01 to 0.1 µM; on KRAS G12S it was 0.1 to 1 µM; at KRAS G12C, 0.1 to 1 µM.

In the case of `CCn1c(-c2cccnc2[C@H](C)OC)c2c3cc(ccc31)-c1csc(n1)C[C@H](NC(=O)[C@H](C(C)C)N(C)C(=O)N1CC[C@H](N(C)C(=O)[C@@H]3CN3)C1)C(=O)N1CCC[C@H](N1)C(=O)OCC(C)(C)C2` (atropisomer, axis not shown) [Example 229], the IC50 at KRAS G12D fell in the range of 1 to 10 µM; on KRAS G13D, 0.1 to 1 µM; at KRAS G13C, 0.1 to 1 µM; at NRAS Q61K, 0.01 to 0.1 µM; at KRAS WT, 0.1 to 1 µM; at KRAS G12V it was 0.1 to 1 µM. Besides, the IC50 fell in the range of 0.1 to 1 µM on NRAS WT; 0.1 to 1 µM at NRAS Q61R; 0.01 to 0.1 µM at KRAS Q61H; 0.1 to 1 µM on NRAS G12C; 0.1 to 1 µM at KRAS G12S; 0.1 to 1 µM at KRAS G12C.

Regarding `CCn1c(-c2cccnc2[C@H](C)OC)c2c3cc(ccc31)-c1cc(O)cc(c1)C[C@H](NC(=O)[C@H](C(C)C)N(C)C(=O)[C@@H]1CCCN(C(=O)[C@H]3CN3)C1)C(=O)N1CCC[C@H](N1)C(=O)OCC(C)(C)C2` (atropisomer, axis not shown) [Example 237], the IC50 at KRAS G12D is 0.1 to 1 µM; at KRAS G13D it was 0.1 to 1 µM; at KRAS G13C, 0.01 to 0.1 µM; at NRAS Q61K, 0.1 to 1 µM; at KRAS WT, 0.01 to 0.1 µM; on KRAS G12V, 0.1 to 1 µM. For the same compound, the IC50 lay in the range of 0.01 to 0.1 µM at NRAS WT; 0.1 to 1 µM on NRAS Q61R; 0.01 to 0.1 µM on KRAS Q61H; 0.01 to 0.1 µM on NRAS G12C; 0.01 to 0.1 µM at KRAS G12S; 0.01 to 0.1 µM on KRAS G12C.
